The results in this text go back to US20070015813A1, “Treatment of protein folding disorders” (QUEEN'S UNIVERSITY AT KINGSTON, priority 2005, published 2007).

One assay has as its target T1, Aβ1-42 (Homo sapiens, UniProt P05067).
T1 construct: Aβ^1-42 (AnaSpec, lot 45685); purchased AnaSpec
Briefly: Kinetic Thioflavin T (ThT) aggregation assay of Aβ1-42. The format is biochemical. Conditions: 20 μM Aβ1-42, kinetic ThT assay. As for the experimental part: Aβ^1-42 (1.0 mg) was either pretreated with HFIP in the same manner as Aβ^1-40 or this step was omitted. After removing HFIP, when appropriate, Aβ^1-42 was dissolved in 1% NH3 (aq.) (200 μL) and sonicated for 1 min. The solution was diluted with Tris-HCl (5.7 mL, 20 mM, pH 7.4), the pH adjusted to 7.4 with concentrated HCl (aq.) and the solution filtered using a syringe filter (0.2 μm). Prior to use in the ThT aggregation assay, the solution was diluted with an equal volume of 8 μM Thioflavin T (ThT) in Tris-HCl (20 mM, pH 7.4, 300 mM NaCl).
(§1) Aliquots (200 μL) of Aβ^1-40, Aβ^1-42, tau441 or α-synuclein with ThT or ThS were added to wells of a black polystyrene 96-well plate, followed by 2 μL of a compound in DMSO (various concentrations), or DMSO alone (controls). For α-synuclein, sodium dodecyl sulfate solution (2.0 μL, 30 mM) was also added to each well to induce aggregation. Incubations were performed in triplicate and were taken to contain 20 μM Aβ^1-40 or Aβ^1-42, 6 μM tau441 or 4 μM α-synuclein. Plates were covered with clear polystyrene lids and incubated at 37° C. in a GENios microplate reader obtained from Tecan Group Limited, Mannedorf, Zurich. For Aβ^1-40, tau441 and α-synuclein, fluorescence readings (λex=450 nm, λem=480 nm) were taken every 15 min., after first shaking at high intensity for 15 sec. and allowing to settle for 10 sec. before each reading. For Aβ^1-42, readings were taken every 5 min.
The absorbance of each compound was measured under the conditions used during testing, though on ten times the scale (2 mL), to ensure no significant quenching interfered with the assay. This step was also used to identify whether compounds were completely soluble under testing conditions.
FIG. 7 depicts inhibition of Aβ^1-42 aggregation by various synthesized bi-aromatic compounds and positive controls morin (Ono K, Yoshiike Y, Takashima A, Hasegawa K, Naiki H, Yamada M. 2003. J Neurochem 87:172-81) and RS-0406 (Walsh D M, Townsend M, Podlisny M B, Shankar G M, Fadeeva J V, Agnaf O E, Hartley D M, Selkoe D J. 2005. J Neurosci 25:2455-62) in the kinetic ThT assay. Same conditions as for Aβ^1-40, FIG. 1. Compound concentrations were 100 μM in (A), 20 μM in (B), except for RS-0406, which was tested at 100 μM, and 20 μM in (C).

The target of the next assay is T2, tau441 (Homo sapiens, UniProt P10636).
T2 construct: (expression construct); host or cells: E. coli BL21 D3
T2 sequence (P10636 1-441 isoform P10636-8): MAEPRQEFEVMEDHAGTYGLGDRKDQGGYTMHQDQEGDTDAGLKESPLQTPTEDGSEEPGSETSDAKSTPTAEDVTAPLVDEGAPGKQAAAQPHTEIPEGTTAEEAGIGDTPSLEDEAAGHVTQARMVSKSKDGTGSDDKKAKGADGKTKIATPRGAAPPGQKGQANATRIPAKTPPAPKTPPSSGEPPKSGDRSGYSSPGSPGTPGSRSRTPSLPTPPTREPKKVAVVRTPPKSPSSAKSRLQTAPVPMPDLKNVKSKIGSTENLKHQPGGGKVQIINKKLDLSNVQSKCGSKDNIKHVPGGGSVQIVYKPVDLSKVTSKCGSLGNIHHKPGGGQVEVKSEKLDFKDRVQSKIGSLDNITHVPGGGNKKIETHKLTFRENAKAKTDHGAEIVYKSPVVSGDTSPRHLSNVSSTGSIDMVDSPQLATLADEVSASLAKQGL
The assay is described as follows: Kinetic Thioflavin S (ThS) assay of tau441 aggregation. The format is biochemical. Conditions: for tau aggregation in the absence of heparin inducer: heparin omitted. The protocol:
The tau441 expression construct [L Buee et al. (2000). Brain Research Reviews 33:95-130] was purchased (Bioclon Inc., San Diego, Calif.) already transformed in BL21 D3 bacterial cells (Novagen/EMD Biosciences) for protein expression. Cells were grown and induced with IPTG according to Novagen's protocol. To lyse cells, Cellytic B reagent (Sigma) was used with lysozyme protease inhibitors (Sigma) and benzonase (Novagen/EMD Biosciences), according to manufacturer's methods. Lysate was cleared by centrifugation for 20 min at 10,000 RPM (SS34 rotor, Sorvall RC2b centrifuge) at 4° C. Protein was purified from the soluble fraction. Once purified, tau441 was stored at −78° C. as frozen aliquots (8.3 mg/mL, 60 μL) in Tris-HCl (50 mM, pH 7.4) until used.
Frozen aliquots of tau441 (8.3 mg/mL, 60 μL) in Tris-HCl (50 mM, pH 7.4) were allowed to thaw at room temperature (RT) before being diluted with Tris-HCl (2.64 mL, 50 mM, pH 7.4) containing dithiothreitol (DTT, 1 mM) to prevent disulfide bonds and NaN3 (50 μM) to prevent bacterial growth. After allowing to stand at RT for 1 h, Thioflavin S (ThS) was added (2.5 μL, 10.8 mM), followed by the aggregation inducer heparin (20 μL, 1.08 g/mL).
as §1
Aggregation conditions: tau441 at a concentration of either 10 μM (A) or 4 μM (B,C,D,E) was incubated in covered black 96-well polystyrene microplates alone or with 100 (A) or 50 μM compound (B,C,D,E), 5 μM ThS, pH 7.4, Tris-HCl (50 mM) containing NaN3 (50 μM), and either 1% MeOH (A) or 1% DMSO (B,C,D,E). Plates were heated at 37° C. in a Tecan GENios microplate reader. All incubations performed in triplicate, except for compound 0c in (A), which had n=1. Fluorescence readings: fluorescence measured every 15 min. (λex=450 nm, λem=480 nm) after shaking for 15 sec. and pausing 10 sec. before taking measurement. Values are the mean of three replicates. Error bars, sometimes not visible due to small size, represent standard deviation of the mean.
Aggregation conditions: tau441 at a concentration of 4 μM was incubated in covered black 96-well polystyrene microplates alone or with 50 μM (A,B,C) or 1 mM compound (D), 5 μM ThS, pH 7.4, Tris-HCl (50 mM) containing NaN3 (50 μM), and 1% DMSO. Plates were heated at 37° C. in a Tecan GENios microplate reader. All incubations performed in triplicate. Fluorescence readings: fluorescence measured every 15 min. (λex=450 nm, λem=480 nm) after shaking for 15 sec. and pausing 10 sec. before taking measurement. Values are the mean of three replicates. Error bars, sometimes not visible due to small size, represent standard deviation of the mean.

T1 sequence (P05067 672-713 limits assumed): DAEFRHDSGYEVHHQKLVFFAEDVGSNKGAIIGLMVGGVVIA

Take `O=c1c(O)c(-c2ccc(O)cc2O)oc2cc(O)cc(O)c12` [morin]: on Aβ1-42, the “inhibition of Aβ1-42 aggregation, as measured by ThT fluorescence” value is “inhibition”. For the same molecule, at tau441, the “tau aggregation in the absence of heparin inducer” value is “inhibited tau aggregation”. In addition, the “effect on tau fibrillization (ThS fluorescence)” value on tau441 (tau441 4 or 10 μM, 50 to 100 μM compound, 5 μM ThS, heparin inducer, pH 7.4, 37° C.) was “inhibition of tau fibrillization”.
For the molecule `O=C(O)c1ccc2[nH]cc(-c3c[nH]c4ccc(Br)cc34)c2c1` [0c, 3-(5-bromo-indol-3-yl)-indole-5-carboxylic Acid], the “tau aggregation in the absence of heparin inducer” value on tau441 is recorded as “inhibited tau aggregation”.
